Test results from PMC10541411 (Nature Communications, 2023).

Columns and labels:
[1] = target: T1, 53BP1^TT-CC (E1549C/E1567C) (Homo sapiens, UniProt Q12888, E1549C/E1567C); assay: 1H-15N HSQC NMR of 15N-labeled 53BP1TT-CC with UNC3474, with and without DTT; format: binding
T1 construct: The tandem Tudor domain of 53BP1 (53BP1^TT, residues 1481–1603) was purified as previously described; made in house
Experimental: Fig. 4 Engineering of a disulfide-crosslinked 53BP1^TT homodimer that binds UNC3474. a Sedimentation velocity analysis of 53BP1^TT-CC (20 μM) in the presence and absence of 10 mM DTT. b Crystal structure of 53BP1^TT-CC (blue and orange) showing the two disulfide bridges overlaid to the crystal structure of 53BP1^TT-UNC3474 (UNC3474 omitted) in gray. c Effects of adding 2 mM DTT and UNC3474 on the ^1H-^15N HSQC spectrum of ^15N-labeled 53BP1^TT-CC (1:1 UNC3474:53BP1^TT-CC molar ratio).
(§1) All NMR data were collected at 25 °C on a 700 MHz Bruker Avance III spectrometer equipped with a cryoprobe. Data were processed and analyzed with NMRPipe[54] and NMRViewJ[55],[56].

53BP1^TT WT [2] = target: T2, 53BP1^TT WT (Homo sapiens, UniProt Q12888); assay: 1H-15N HSQC NMR titration of 15N-labeled wild-type 53BP1TT; format: binding; set-up: The tandem Tudor domain of 53BP1 (53BP1^TT, residues 1481–1603) was purified as previously described; made in house; host or cells: E. coli (only for the SAXS sample); conditions: 15N-labeled WT 53BP1TT
Experimental: as §1
Target sequence in this assay (Q12888 1481-1603): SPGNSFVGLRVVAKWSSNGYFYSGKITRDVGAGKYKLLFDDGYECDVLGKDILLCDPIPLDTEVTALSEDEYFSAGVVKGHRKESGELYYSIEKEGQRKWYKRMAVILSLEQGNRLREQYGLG
To probe chemical shift perturbations, ^1H-^15N HSQC spectra were acquired on the following samples: 0.2 mM ^15N-labeled 53BP1^TT WT and 53BP1^TT-PN in 25 mM sodium phosphate, pH 7.0, 1.5 mM NaN3, 0.3 mM DSS, 90% H2O/10% D2O, free and incrementally titrated with various non-labeled inhibitors (UNC1078, UNC1118, UNC2170, UNC2991, UNC3474), as well as with H4KC20me2 and p53K382me2 peptides. Chemical shift perturbations (Δδ) were calculated using the Eq. (1):1 Δδ=(ΔN/5)^2+ΔH^2 where ΔN and ΔH are the corresponding differences in ^15N and ^1H chemical shifts between the bound and free forms of 53BP1.

53BP1^TT [3] = target: T3, 53BP1^TT (Homo sapiens, UniProt Q12888); assay: Sedimentation velocity analytical ultracentrifugation (AUC); conditions: 53BP1TT 20 μM, UNC3474 10-200 μM
T3 construct: The tandem Tudor domain of 53BP1 (53BP1^TT, residues 1481–1603) was purified as previously described; made in house; host or cells: E. coli (only for the SAXS sample)
T3 sequence (Q12888 1481-1603): as above
Experimental: The AUC experiments were performed at 20 °C in 20 mM sodium phosphate, pH 7.5, with 50 mM NaCl. 53BP1^TT was at a concentration of 20 μM. Measurements were recorded on an Optima analytical ultracentrifuge (Beckman Coulter) with an An-50 Ti analytical 8-place rotor using absorbance detection at 280 nm. Sample-filled AUC cells assembled with 12-mm charcoal-filled Epon centerpieces and quartz windows were subjected to 3 h of equilibration at 20 °C under vacuum prior to initiating the experiments at 50,000 rpm (corresponding to 182,000 × g at the cell center and 201,600 × g at the cell bottom) with continuous data acquisition for 20 h (200 scans) at 20 °C. The AUC data were analyzed with the c(s) model in SEDFIT[66] using a partial specific volume of 0.7335 mL/g.

53BP1^TT WT [4] = target: T2, 53BP1^TT WT; assay: Small angle X-ray scattering (SAXS); set-up: residues 1484-1603; made in house; host or cells: E. coli
Experimental: SAXS measurements were performed at 10 °C and different concentrations (0.67, 1.33 and 2 mg/mL) of 53BP1^TT WT, free and in complex with 10-fold molar excess of UNC3474 or UNC1118, in 25 mM sodium phosphate, pH 7.5, 15 mM NaCl, as well as on control samples containing only the small molecule in the same buffer. SAXS data were collected at the Lawrence Berkeley National Laboratory SYBILS beamline 12.3.1 and analyzed using programs from the SAXS data analysis software ATSAS (version 2.4.2)[63],[64] including PRIMUS, GNOM, AUTOPOROD, GASBOR and CRYSOL. PRIMUS (version 3.0) was used for initial data processing. Radii of gyration (Rg) were calculated using the Guinier approximation. Distance distribution functions P(r) and maximum particle dimensions were computed using GNOM. Molecular volumes and weights were estimated using AUTOPOROD. Ab initio reconstructions of molecular envelopes were done using GASBOR 2.3i. CRYSOL was used to back calculate the scattering curves and determine the goodness of fit.
Supplementary Table 1 | SAXS reporting data.
Organism Homo Sapiens Homo Sapiens Homo Sapiens
Source E. coli E. coli E. coli
Solvent composition 25 mM sodium 25 mM sodium 25 mM sodium
phosphate, pH 7.5, 15 phosphate, pH 7.5, 15 phosphate, pH 7.5, 15
SAXS data collection parameters
Source SIBYLS beamline 12.3.1 at the Advanced Light Source […]
Beam geometry (size, sample-to-detector distance) 0.1 x 0.1 mm, 1.5 m
Method for monitoring radiation damage Varied exposure lengths were compared against one another
Exposure time, number of exposures 0.5 s, 1 s, 2 s exposures for each concentration
Sample configuration A 1 mm sample was placed between two mica windows in a
Software employed for SAXS data reduction, analysis and interpretation
SAS data reduction Subtraction using established programs at SIBYLS beamline 12.3.1
Basic analyses and merging of curves. PRIMUS from ATSAS 2.4.2
Shape/bead modeling GASBOR 2.3i
Target sequence in this assay (Q12888 1484-1603): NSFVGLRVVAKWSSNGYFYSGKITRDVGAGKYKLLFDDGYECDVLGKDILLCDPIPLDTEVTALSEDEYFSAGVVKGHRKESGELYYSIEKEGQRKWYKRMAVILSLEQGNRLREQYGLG

53BP1^TT [5] = target: T3, 53BP1^TT; assay: NMR 15N relaxation measurements (R1, R2, NOE); conditions: 1 mM 15N-labeled 53BP1TT, saturating amounts of small molecule
Experimental: The NMR relaxation measurements were carried out with 1 mM ^15N-labeled 53BP1^TT, 53BP1^TT-PN, and 53BP1^TT in the presence of saturating amounts of UNC3474 and UNC1118 in 25 mM sodium phosphate, pH 7.0, 100 mM NaCl, 1.5 mM NaN3, 0.3 mM DSS, 90% H2O/10% D2O, using standard experiments[58],[59]. The longitudinal and transverse ^15N relaxation rates R1 and R2 were determined using 12 and 14 relaxation delay times of 0.1–2 s and 4–120 ms, respectively. The first data point of each set of measurements was repeated for error assessment. The ^15N-{^1H} nuclear Overhauser ratios were obtained from a reference experiment without proton irradiation and a steady-state experiment with proton irradiation for 3 s.

T1 sequence (Q12888 1481-1603 E1549C/E1567C): as the sequence (Q12888 1481-1603) above, with E69C, E87C counted along it

Question: What does the source list for `CC(C)c1cccc(C(=O)NCCCNC(C)(C)C)c1` [UNC3474]?
Answer: affinity of reduced monomeric 53BP1TT-CC ([1]; with DTT (2 mM)): no affinity; effect on 1H-15N HSQC spectra of 53BP1TT-CC (disulfide-crosslinked dimer) ([1]; without DTT, 1:1 UNC3474:53BP1TT-CC molar ratio): splitting of several NMR signals; changes in signal positions in the 1H-15N HSQC spectrum of 53BP1TT upon titration (53BP1^TT WT [2]): slow exchange on the chemical shift time scale; change in sedimentation coefficient of 53BP1TT (53BP1^TT [3]): consistent with the dimerization of 53BP1^TT; Rg, P(r) analysis, of 53BP1TT complex (53BP1^TT WT [4]; 10-fold molar excess of ligand, free 53BP1TT 18.85 ± 0.069): 20.18 ± 0.038 Å; Rg, Guinier analysis, of 53BP1TT complex (53BP1^TT WT [4]; 10-fold molar excess of ligand, free 53BP1TT 19.1 ± 0.2): 20.1 ± 0.1 Å; dmax, P(r) analysis, of 53BP1TT complex (53BP1^TT WT [4]; 10-fold molar excess of ligand, free 53BP1TT 62.5): 69.4 Å; Porod volume of 53BP1TT complex (53BP1^TT WT [4]; 10-fold molar excess of ligand, free 53BP1TT 21822): 37692 Å3; changes in SAXS data upon complex formation (53BP1^TT WT [4]; 10-fold molar excess of small molecule, 10 °C): agreed well with 53BP1^TT homodimerization; effect on 15N relaxation rates of 53BP1TT (53BP1^TT [5]): increase in R2 relaxation rates
